Test results reported in article PMC12668289 (RSC Chemical Biology, 2025).
Where “and” joins values, the source holds several entries; their conditions need not be identical. Equal entries are not always repeated. Where two headings read alike, the source gives them in different places.

Experiments:
[1] = tested on: stably Fluc-expressing HepG2 cells; experiment: Real-time BL monitoring of live cells; type: cell-based, human; settings: Fluc HepG2, 100 µM; for Time at which the highest BL signals were achieved: monitored for 3 days
Fluc (HeLa) = experiment: Sensitivity of live reporter cell detection (LOD of cell number); type: cell-based, human; settings: for Limit of detection (LOD), cells: Fluc (HeLa)
[2] = tested on: HepG2 cell line stably expressing a Fluc reporter; experiment: BL spectra in live HepG2 cells stably expressing Fluc; type: cell-based, human; settings: live HepG2, DMEM with 25 mM HEPES-NaOH pH 7.0, 37 °C, 100 µM
Experimental: (§1) mM purified luciferases into the reaction tube and the bioluminescence signals were monitored until it decayed to the background level.
The QY value was calculated from the measured total numbers of photon emission from the reaction of each D-LH 2 analogue with […]
1.6 Mammalian cell line culture and bioluminescence assays
Human embryotic kidney (HEK293T) cells, human hepatocyte carcinoma cancer (HepG2) cells, human cervical carcinoma (HeLa) cells, and Abelson leukemia virus-transformed cell line derived from BALB/c mice (RAW264.7) cells (American Type Culture Collection, USA) were grown in Dulbecco’s Modified Eagle Medium (DMEM) in low glucose supplemented with 10% (v/v) heat-inactivated fetal bovine serum (FBS) plus 1% (w/v) penicillin-streptomycin. Four types of cells were maintained at 37 °C with 5% CO2. For transient transfection, […]
supplemented with 10% (v/v) heat-inactivated FBS. Before transfection, the cultured medium was removed and added a fresh minimal essential medium with reduced amount of serum (opti-MEMTM) to each well. Cells were transfected by adding 0.07 pmol of pGL4.13 [luc2/SV40] as a target vector and 0.007 pmol of pRL-TK as a control vector using lipofectamineTM3000 (Thermo Fisher Scientific) in opti-MEMTM and lipofection. Cells were incubated for 5 h and then the supernatant medium was replaced by a fresh working DMEM medium.
Cells were harvested by washing with 500 μl PBS buffer (pH 7.4). The cells were detached […]
freezing-thawing process. […]
kept at -80 °C until used.
The 150 µl assay reaction was carried out in 150 µl 100 mM HEPES-NaOH (pH 8.0). The 25 µl […]
100 mM HEPES-NaOH (pH 8.0). Then, the RLU signals of each D-LH 2 and analogues were compared. […]
proteins) and a substrate cocktail reagent (3 mM ATP and 6 mM MgCl2 in 100 mM HEPES pH 8.0). The detection sensitivity of crude lysate of HEK293T expressing Fluc was determined by measuring RLU of the reaction with a luminometer with concentrations under the linearity […]
After the cells reached the highest BL intensity, the dish was recorded with a highly sensitive CCD […]

SLR [3] = experiment: Bioluminescence quantum yield measurement; type: biochemical, Phrixothrix hirtus
Experimental: (§2) 1.5 Bioluminescence characterizations
(§3) Reactions of luciferases, including Photinus pyralis luciferase (Fluc), Phrixothrix hirtus luciferase (SLR), Pyrearinus termitilluminans […]
(§4) mM D-LH 2 analogues, 3 mM ATP, 6 mM MgCl2, and 10 µM luciferase in 0.2 ml of 100 mM HEPES-NaOH pH 8.0. […]
(§5) A reference light source was used for calibrating a sphere spectrometer equipped with a cooled CCD detector.
(§6) The absolute responsivity of each luciferase-luciferin reaction was calculated based on a linear standardization between total photon flux measured using the sphere spectrometer equipped with a cooled CCD detector and relative count values measured by a luminometer. Total photons emitted from the bioluminescence reaction of each luciferase-luciferin pair were measured using a calibrated luminometer. A reaction containing 0.5-5 nM of each luciferin, 3 mM ATP, 3 mM MgCl2 in 100 mM Tris-HCl (total volume of 200 µl) was placed into the luminometer and background signals were recorded. The reaction was then initiated by adding 20 µl of 0.5 […]
as §1

SLR [4] = experiment: BL emission spectra of luciferase-luciferin reactions; type: biochemical, Phrixothrix hirtus; settings: 100 mM HEPES pH 8.0, 25 °C
Experimental: as §2, §3
(§7) mM D-LH 2 analogues, 3 mM ATP, 6 mM MgCl2, and 10 µM luciferase in 0.2 ml of 100 mM HEPES-NaOH pH 8.0. The bioluminescence (BL) emission characteristics were recorded using a microplate reader in a BL mode (Thermo Scientific, Varioskan, LUX multimode). […]
(§8) sphere-based multichannel spectrometer with a charge-coupled device (CCD) detector. […]

Pmluc-N230S = experiment: Bioluminescence quantum yield measurement; type: biochemical, Pyrocoelia miyako
Experimental: as §2, §3, §4, §5, §6, §1

Fluc = Fluc (Photinus pyralis, UniProt P08659); experiment: biochemical; type: binding; settings: ITC; for G (free energy of binding) / H (enthalpy of binding): 25 °C; for Kd: Table S9
Fluc (HepG2) = experiment: Sensitivity of live reporter cell detection (LOD of cell number); type: cell-based, human; settings: 100 µM, 30 min
[5] = tested on: SLR-expressing HeLa cells; experiment: Real-time BL monitoring of live cells
Experimental: plasmids and Lipofectamine 3000 were then combined and incubated for 30 minutes to allow formation of DNA and lipid complexes.
The DNA-lipid complexes were added directly to each well of the empty plate. 1.5 × 10⁵ cells (HepG2 and HeLa cells) were then suspended
in 150 µL of DMEM supplemented with 10% FBS were added directly into the transfection mixture in each well. The plate was gently
agitated to ensure even distribution and incubated at 37°C in a humidified 5% CO₂ incubator. The reporter cells obtained at this stage
were ready for further investigation of their bioluminescence with D-LH2 analogues.
2c), 10% FBS and 25 mM HEPES-NaOH (pH 7.0) was added and the BL signals were monitored with F0 (no filter) and F2 (red filter, >620
nm long-pass filter) by a luminometer (ATTO, Kronos HT, WSL-1563) and while maintaining the cells with 5% CO2 at 37 °C.

Eluc = experiment: BL emission spectra of luciferase-luciferin reactions; type: biochemical, Pyrearinus termitilluminans; settings: 100 mM HEPES pH 8.0, 25 °C
Experimental: as §2, §3, §7, §8

[6] = F2 (red filter, >620 nm long-pass)
[7] = Fluc-expressing HeLa, F0 filter

Sequence of Fluc (P08659 whole entry): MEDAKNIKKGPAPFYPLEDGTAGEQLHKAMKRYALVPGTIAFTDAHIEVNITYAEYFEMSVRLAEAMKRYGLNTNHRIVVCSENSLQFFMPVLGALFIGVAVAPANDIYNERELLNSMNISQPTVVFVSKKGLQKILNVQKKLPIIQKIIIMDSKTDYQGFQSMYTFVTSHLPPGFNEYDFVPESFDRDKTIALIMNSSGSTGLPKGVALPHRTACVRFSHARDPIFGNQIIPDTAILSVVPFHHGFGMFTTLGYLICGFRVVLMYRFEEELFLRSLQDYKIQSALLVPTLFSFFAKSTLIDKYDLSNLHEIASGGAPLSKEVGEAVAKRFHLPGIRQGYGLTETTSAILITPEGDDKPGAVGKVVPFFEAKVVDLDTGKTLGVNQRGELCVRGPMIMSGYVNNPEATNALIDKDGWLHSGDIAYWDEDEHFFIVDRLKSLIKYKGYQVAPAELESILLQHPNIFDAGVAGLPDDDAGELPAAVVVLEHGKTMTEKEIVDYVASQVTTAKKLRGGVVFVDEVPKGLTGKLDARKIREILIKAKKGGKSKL

| SMILES | Time at which the highest BL signals were achieved [1] | Limit of detection (LOD), cells (Fluc (HeLa); F0 (no filter)) | Limit of detection (LOD), cells (Fluc (HeLa); F2 (red filter)) | BL spectrum peak in live cells [2] | Quantum yield (SLR [3]) | Bioluminescence wavelength (BLλ) (SLR [4]) | Quantum yield (Pmluc-N230S) | N site (Fluc) | Limit of detection (LOD), cells (Fluc (HepG2); F0 (no filter)) | Limit of detection (LOD), cells (Fluc (HepG2); [6]) | Time BL signals are prolonged before signal decreasing [5] | Bioluminescence wavelength (BLλ) (Eluc) | Highest signal obtained at faster rate than that of 2a [1] | G (free energy of binding) (Fluc) | H (enthalpy of binding) (Fluc) | Kd (Fluc) | Time BL signals are prolonged before signal decreasing ([5]; SLR-expressing HeLa, 100 µM) | Sensitivity higher than that of 2a (Fluc (HeLa); [7]) | Sensitivity higher than that of 2b (Fluc (HeLa); [7]) | Sensitivity higher than that of 2a (Fluc (HeLa); Fluc-expressing HeLa, F2 filter) |
| --- | --- | --- | --- | --- | --- | --- | --- | --- | --- | --- | --- | --- | --- | --- | --- | --- | --- | --- | --- | --- |
| O=C(O)[C@H]1CSC(c2nc3ccc(O)cc3s2)=N1 [Compound 2a, D-luciferin, reference compound] | 44 h | 4661 cells | 997 cells | 604 nm | 0.16 and 0.160 ± 0.005 | 625 nm | 0.16 and 0.160 ± 0.018 | 1.00 | 601 cells | 897 cells | up to 10 h | 537 nm |  |  |  |  |  |  |  |  |
| Cc1cc2nc(C3=N[C@@H](C(=O)O)CS3)sc2cc1O [Compound 2b, 5’-methyl-D-luciferin] | 35 h | 1457 cells | 415 cells | 609 nm | 0.19 and 0.190 ± 0.005 | 626 nm | 0.17 and 0.170 ± 0.034 | 0.70 |  | 795 cells |  | 560 nm | 1.2 fold | -6.70 kcal/mol | -1.83 kcal/mol | 13.4 µM | up to 10 h |  |  |  |
| Cc1cc2nc(C3=N[C@@H](C(=O)O)CS3)sc2c(C)c1O [Compound 2c, 5’,7’-di-methyl-D-luciferin] | 6 h |  | 350 cells | 638 nm | 0.16 and 0.160 ± 0.003 | 634 nm | 0.15 and 0.150 ± 0.014 | 0.80 | 713 cells |  |  | 573 nm | 7.3 fold | -6.08 kcal/mol | -3.20 kcal/mol | 35.1 µM | up to 18 h | ~13.0 fold | about 4.1 fold | about 2.8 fold |
